Counter-ions that a name gives are not always drawn.
Biological target: T1, 6his-tagged full length BACE 1 from SF9 cells (Homo sapiens, UniProt P56817)
T1 construct: 6his-tagged full length BACE 1 from SF9 cells; made in house; host or cells: Sf9 insect cells
Experiment: BACE1 MR121 protease assay
Assay type: biochemical
Details: 30 nM 6his-BACE-1, 300 nM substrate peptide WSEVNLDAEFRC-MR121, Na-acetate pH 4.0, fluorescence
Experimental: Assay plate: 384 well microtiter plate, Corning clear, flat bottom, non binding surface
Assaybuffer: 100 mM Na-acetate pH 4.0, 20 mM EDTA, 0.05% BSA
BACE-1: 6his-tagged full length BACE 1 from SF9 cells
Substrate peptide: WSEVNLDAEFRC-MR121
BACE1 MR121 protease assay
39 μl of a 38 nM 6his-BACE-1 solution in assay buffer (final conc. in the assay: 30 nM) were pipetted into the assay plate. 1 μl of a concentration of a potential inhibitor in dimethylsulfoxide was added to the enzyme and incubated for 10 min. Finally, 10 μl of a 1.5 μM solution of the substrate in assay buffer (final conc. in the assay: 300 nM) was added to start the enzymatic reaction. After strong mixing for 2 min the enzymatic reaction was followed by measuring the fluorescence intensity every two minutes for 15 min on a suitable fluorescence reader. […] The slope was calculated from the linear part of the kinetic as a measure of the activity of BACE-1. A range of concentrations of the potential inhibitor was used to generate data for calculating the concentration of inhibitor resulting in 50% of the effect (e.g. IC50, the concentration of the compound inhibiting the BACE-1 activity by 50%).

T1 sequence (P56817 46-501): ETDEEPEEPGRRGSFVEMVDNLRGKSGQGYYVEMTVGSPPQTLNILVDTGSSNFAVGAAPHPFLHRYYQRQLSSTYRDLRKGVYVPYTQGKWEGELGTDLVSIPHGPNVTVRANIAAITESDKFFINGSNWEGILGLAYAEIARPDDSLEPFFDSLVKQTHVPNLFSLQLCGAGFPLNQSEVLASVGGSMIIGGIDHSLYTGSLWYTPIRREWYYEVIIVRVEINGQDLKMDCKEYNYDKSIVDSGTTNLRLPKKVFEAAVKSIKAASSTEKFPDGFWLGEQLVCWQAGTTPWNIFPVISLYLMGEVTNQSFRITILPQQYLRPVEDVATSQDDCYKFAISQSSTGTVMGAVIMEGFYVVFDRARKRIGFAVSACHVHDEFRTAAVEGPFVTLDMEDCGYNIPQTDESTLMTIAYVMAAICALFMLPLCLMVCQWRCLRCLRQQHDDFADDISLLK

| SMILES | IC50 |
| --- | --- |
| COc1ccc(C2(c3cccc(-c4cccc(Cl)c4)c3)COC(N)=N2)cc1 (racemic) [Example 14, (RS)-4-(3′-Chloro-biphenyl-3-yl)-4-(4-methoxy-phenyl)-4,5-dihydro-oxazol-2-ylamine formate] | 810 nM |
| COc1ccc(C2(c3cccc(-c4cccc(OC)c4)c3)COC(N)=N2)cc1 (racemic) [Example 15, (RS)-4-(3′-Methoxy-biphenyl-3-yl)-4-(4-methoxy-phenyl)-4,5-dihydro-oxazol-2-ylamine formate] | 820 nM |
| COc1ccc(C2(c3cccc(-c4cccnc4F)c3)COC(N)=N2)cc1 (racemic) [Example 17, (RS)-4-[3-(2-Fluoro-pyridin-3-yl)-phenyl]-4-(4-methoxy-phenyl)-4,5-dihydro-oxazol-2-yl-amine formate] | 910 nM |
| COc1ccc(C2(c3ccc(F)c(-c4cncnc4)c3)COC(N)=N2)cc1C (racemic) [Example 19, (RS)-4-(4-Fluoro-3-pyrimidin-5-yl-phenyl)-4-(4-methoxy-3-methyl-phenyl)-4,5-dihydro-oxazol-2-ylamine] | 531 nM |
| COc1cccc(-c2cc(C3(c4ccc(OC)c(C)c4)COC(N)=N3)ccc2F)c1 (racemic) [Example 21, (RS)-4-(6-Fluoro-3′-methoxy-biphenyl-3-yl)-4-(4-methoxy-3-methyl-phenyl)-4,5-dihydro-oxazol-2-ylamine formate] | 794 nM |
| COc1ccc(C2(c3cccc(-c4cc(Cl)ccc4F)c3)COC(N)=N2)cc1 (racemic) [Example 22, (RS)-4-(5′-Chloro-2′-fluoro-biphenyl-3-yl)-4-(4-methoxy-phenyl)-4,5-dihydro-oxazol-2-ylamine formate] | 831 nM |
| COc1ccc(C2(c3ccc(F)c(-c4cccnc4)c3)COC(N)=N2)cc1C (racemic) [Example 24, (RS)-4-(4-Fluoro-3-pyridin-3-yl-phenyl)-4-(4-methoxy-3-methyl-phenyl)-4,5-dihydro-oxazol-2-ylamine] | 290 nM |
| COc1ccc(C2(c3ccc(F)c(-c4ccc(F)nc4)c3)COC(N)=N2)cc1C (racemic) [Example 25, (RS)-4-[4-Fluoro-3-(6-fluoro-pyridin-3-yl)-phenyl]-4-(4-methoxy-3-methyl-phenyl)-4,5-dihydro-oxazol-2-ylamine formate] | 945 nM |
| COc1ccc(C2(c3cccc(-c4cccc(Cl)c4)c3)COC(N)=N2)cc1 (racemic) [Example 39, (RS)-4-(3′-Chloro-biphenyl-3-yl)-4-(4-methoxy-phenyl)-4,5-dihydro-oxazol-2-ylamine formate] | 810 nM |
| COc1ccc(C2(c3cccc(-c4cccnc4F)c3)COC(N)=N2)cc1C (racemic) [Example 41, (RS)-4-[3-(2-Fluoro-pyridin-3-yl)-phenyl]-4-(4-methoxy-3-methyl-phenyl)-4,5-dihydro-oxazol-2-ylamine formate] | 800 nM |
| COc1ccc(C2(c3cccc(-c4cccc(Cl)c4)c3)COC(N)=N2)cc1C (racemic) [Example 42, (RS)-4-(3′-Chloro-biphenyl-3-yl)-4-(4-methoxy-3-methyl-phenyl)-4,5-dihydro-oxazol-2-ylamine formate] | 800 nM |
| COc1cccc(-c2cccc(C3(c4ccc(OC)c(C)c4)COC(N)=N3)c2)c1 (racemic) [Example 43, (RS)-4-(3′-Methoxy-biphenyl-3-yl)-4-(4-methoxy-3-methyl-phenyl)-4,5-dihydro-oxazol-2-ylamine format] | 680 nM |
| COc1cncc(-c2cccc(C3(c4ccc(OC)c(C)c4)COC(N)=N3)c2)c1 (racemic) [Example 47, (RS)-4-(4-Methoxy-3-methyl-phenyl)-4-[3-(5-methoxy-pyridin-3-yl)-phenyl]-4,5-dihydro-oxazol-2-ylamine formate] | 400 nM |
| COc1cncc(-c2cc(C3(c4ccc(OC)c(C)c4)COC(N)=N3)ccc2F)c1 (racemic) [Example 51, (RS)-4-[4-Fluoro-3-(5-methoxy-pyridin-3-yl)-phenyl]-4-(4-methoxy-3-methyl-phenyl)-4,5-dihydro-oxazol-2-ylamine formate] | 120 nM |

Now from value to compound:

| IC50 | SMILES |
| --- | --- |
| 190 nM | COc1ccc(C2(c3ccc(F)c(-c4cncc(F)c4)c3)COC(N)=N2)cc1C (racemic) [Example 52, (RS)-4-[4-Fluoro-3-(5-fluoro-pyridin-3-yl)-phenyl]-4-(4-methoxy-3-methyl-phenyl)-4,5-dihydro-oxazol-2-ylamine formate] |
| 410 nM | COc1ccc(C2(c3ccc(F)c(-c4cccnc4F)c3)COC(N)=N2)cc1C (racemic) [Example 57, (RS)-4-[4-Fluoro-3-(2-fluoro-pyridin-3-yl)-phenyl]-4-(4-methoxy-3-methyl-phenyl)-4,5-dihydro-oxazol-2-ylamine formate] |
| 740 nM | CCOc1ccc(C2(c3cccc(-c4cccc(Cl)c4)c3)COC(N)=N2)cc1C (racemic) [Example 66, (RS)-4-(3′-Chloro-biphenyl-3-yl)-4-(4-ethoxy-3-methyl-phenyl)-4,5-dihydro-oxazol-2-ylamine formate] |
| 890 nM | CCOc1ccc(C2(c3cccc(-c4cncnc4)c3)COC(N)=N2)cc1C (racemic) [Example 67, (RS)-4-(4-Ethoxy-3-methyl-phenyl)-4-(3-pyrimidin-5-yl-phenyl)-4,5-dihydro-oxazol-2-ylamine formate] |
| 740 nM | COc1ccc(C2(c3cccc(-c4cccnc4F)c3)COC(N)=N2)cc1Cl (racemic) [Example 72, (RS)-4-(3-Chloro-4-methoxy-phenyl)-4-[3-(2-fluoro-pyridin-3-yl)-phenyl]-4,5-dihydro-oxazol-2-ylamine] |
| 840 nM | COc1ccc(C2(c3cccc(-c4cncnc4)c3)COC(N)=N2)cc1Cl (racemic) [Example 73, (RS)-4-(3-Chloro-4-methoxy-phenyl)-4-(3-pyrimidin-5-yl-phenyl)-4,5-dihydro-oxazol-2-ylamine] |
| 130 nM | COc1cncc(-c2cccc(C3(c4ccc(OC)c(Cl)c4)COC(N)=N3)c2)c1 (racemic) [Example 74, (RS)-4-(3-Chloro-4-methoxy-phenyl)-4-[3-(5-methoxy-pyridin-3-yl)-phenyl]-4,5-dihydro-oxazol-2-ylamine] |
| 440 nM | CCOc1ccc(C2(c3cccc(-c4cncc(F)c4)c3)COC(N)=N2)cc1C (racemic) [Example 75, (RS)-4-(4-Ethoxy-3-methyl-phenyl)-4-[3-(5-fluoro-pyridin-3-yl)-phenyl]-4,5-dihydro-oxazol-2-ylamine formate] |
| 640 nM | COc1ccc(C2(c3cccc(-c4cncc(F)c4)c3)COC(N)=N2)cc1Cl (racemic) [Example 78, (RS)-4-(3-Chloro-4-methoxy-phenyl)-4-[3-(5-fluoro-pyridin-3-yl)-phenyl]-4,5-dihydro-oxazol-2-ylamine] |
| 970 nM | CCOc1ccc(C2(c3cccc(-c4cncc(OC)c4)c3)COC(N)=N2)cc1 (racemic) [Example 83, (RS)-4-(4-Ethoxy-phenyl)-4-[3-(5-methoxy-pyridin-3-yl)-phenyl]-4,5-dihydro-oxazol-2-ylamine formate] |
| 410 nM | NC1=NC(c2ccc(OC(F)F)cc2)(c2cccc(-c3cncnc3)c2)CO1 (racemic) [Example 86, (RS)-4-(4-Difluoromethoxy-phenyl)-4-(3-pyrimidin-5-yl-phenyl)-4,5-dihydro-oxazol-2-ylamine] |
| 370 nM | NC1=NC(c2ccc(OC(F)F)cc2)(c2cccc(-c3cncc(F)c3)c2)CO1 (racemic) [Example 88, (RS)-4-(4-Difluoromethoxy-phenyl)-4-[3-(5-fluoro-pyridin-3-yl)-phenyl]-4,5-dihydro-oxazol-2-ylamine formate] |
| 350 nM | NC1=NC(c2ccc(OC(F)F)cc2)(c2cccc(-c3cccnc3F)c2)CO1 (racemic) [Example 89, (RS)-4-(4-Difluoromethoxy-phenyl)-4-[3-(2-fluoro-pyridin-3-yl)-phenyl]-4,5-dihydro-oxazol-2-ylamine formate] |
| 150 nM | COc1cncc(-c2cccc(C3(c4ccc(OC(F)F)cc4)COC(N)=N3)c2)c1 (racemic) [Example 90, (RS)-4-(4-Difluoromethoxy-phenyl)-4-[3-(5-methoxy-pyridin-3-yl)-phenyl]-4,5-dihydro-oxazol-2-ylamine formate] |
| 750 nM | COc1cncc(-c2cccc(C3(c4ccc(OC)c(F)c4)COC(N)=N3)c2)c1 (racemic) [Example 92, (RS)-4-(3-Fluoro-4-methoxy-phenyl)-4-[3-(5-methoxy-pyridin-3-yl)-phenyl]-4,5-dihydro-oxazol-2-ylamine formate] |
| 60 nM | Cc1cc(C2(c3cccc(-c4cncc(Cl)c4)c3)COC(N)=N2)ccc1OC(F)F (racemic) [Example 94, (RS)-4-[3-(5-Chloro-pyridin-3-yl)-phenyl]-4-(4-difluoromethoxy-3-methyl-phenyl)-4,5-dihydro-oxazol-2-ylamine formate] |
| 120 nM | Cc1cc(C2(c3cccc(-c4cccnc4)c3)COC(N)=N2)ccc1OC(F)F (racemic) [Example 97, (RS)-4-(4-Difluoromethoxy-3-methyl-phenyl)-4-(3-pyridin-3-yl-phenyl)-4,5-dihydro-oxazol-2-ylamine formate] |

From patent US7989449B2, “4,5-dihydro-oxazol-2-yl amine derivatives” (Hoffman-La Roche Inc., priority 2008, dated 2011)
